The assay deals with E. coli (MG1655). In kind it is cell-based, Escherichia coli. The method, then: For all experiments and E. coli strains, cells were grown in a medium (M9gluCAAT) with M9 salts (33.7 mM Na2HPO4, 22mM KH2PO4, 8.55 mM NaCl, 9.35 mM NH4Cl), 0.2% (w/v) glucose, 0.4% (w/v) casamino acids, 1 mM MgSO4, 0.3 mM CaCl2, 1 μg/mL thiamine, and trace elements (13.4 mM ethylene-diamine-tetra-acetic-acid (EDTA), 3.1 mM FeCl3-6H2O, 0.62 mM ZnCl2, 76 μM CuCl2-2H2O, 42 μM CoCl2-2H2O, 162 μM H3BO3, 8.1 μM MnCl2-4H2O). Prior to every experiment, cells were first inoculated into M9gluCAAT and grown to stationary phase at 37°C. For all assays except the biofilm experiments, the culture was diluted to 1/10,000 or more in fresh medium and grown at 37°C until it reached an optical density at 600 nm (OD) of 0.2–0.4. For the biofilm experiments, cells were grown in M9gluCAAT supplemented with 100 μg/mL ampicillin to maintain the GFP-expressing plasmid. The overnight stationary-phase cultures were then diluted into the same medium to an OD of 0.015. See below for details on biofilm growth.
Except for the biofilm experiments, the strains used in this study were derived from MG1655 (ATCC 47076), which was used to estimate the minimum inhibitory concentration (MIC) for all the studied peptides (or peptoids) using a microplate reader (Figure 1A). To detect the timing of outer and inner membrane permeabilization to proteins, strain CJW7845 was constructed to carry two freely diffusing fluorescent proteins: mScarlet-I in the periplasm and mTagBFP2 in the cytoplasm. Construction of CJW7845 was done by transforming pBAD-mTagBFP2 plasmid (Addgene #34632, a gift from Vladislav Verkhusha; ([Subach et al., 2011])) into an E. coli strain expressing a periplasmic mScarlet-I reporter ([Cañas-Duarte 2021]), as previously described ([Chung et al., 1989]). Transformants were restreaked on fresh selection plates and confirmed via microscopy.
To determine the minimal inhibitory concentration (MIC) of the selected AMPs against either MG1655 or ATCC 25922 E. coli strains, exponentially growing cells were diluted in fresh medium to an OD = 10^−6 (~500 cells/mL) and mixed 50:50 with titrated AMP concentrations (which were chosen to be over a range that included the MIC) in a 96-well plate (flat bottom with low evaporation lid, 3595, Corning, Arizona, USA). A final OD of 5 × 10^−7 corresponds to ~250 cells/mL. OD curves were sampled every 5 min for a total of 48 h using a microplate reader (BioTek Synergy 2, Agilent Technologies Inc., California, USA). Raw data were exported as a text file and analysed using a custom-written Python script (microplate_reader_analysis.py). To measure maximum growth rates, the log(OD) was fitted using a linear regression over a 12-point moving window (60 min), which provides the instantaneous growth rate (log(OD)/h), from which the global maximum was computed. The MIC was defined as the minimum AMP concentration for which the maximum growth rate was < 0.2 log(OD)/h within the first 20 h of incubation. Each MIC experiment was performed independently at least three times (with at least two technical replicates each), and the mode across all replicates was taken as the final MIC; in the rare cases of a tie, an additional replicate was performed, which was sufficient to resolve it.

[1] abbreviates: E. coli MG1655, M9gluCAAT, 37°C, 20 h, inoculum ~250 cells/mL, mode across three biological replicates.

Like-named read-outs stand apart in the source and are kept apart here. Square brackets hold non-standard residues; d marks the D form. Ends that are not written are not given here. Peptide text beside a SMILES is read from it. * marks the point of attachment. 5TAMRA = CN(C)c1ccc2c(c1)Oc1cc(N(C)C)ccc1C21OC(=O)c2cc(C(=O)*)ccc21

Consider `CO[C@H]1/C=C/O[C@@]2(C)Oc3c(C)c(O)c4c(O)c(c(/C=N/N5CCN(C)CC5)c(O)c4c3C2=O)NC(=O)/C(C)=C\C=C\[C@H](C)[C@H](O)[C@@H](C)[C@@H](O)[C@@H](C)[C@H](OC(C)=O)[C@@H]1C` [Rif, rifampicin], for which, under setting [1], the “MIC (mode MIC), antibiotics” value is 16 µg/mL.

As for “RRIPFWPPNWPGPWLPPWSPPDFRIPRILRKR [Tur1B]”, under “MG1655, 20 h”, the “MIC (mode MIC)” value amounted to 8 µM.

Regarding `CC[C@H](C)[C@H](NC(=O)[C@H](CCCCN)NC(=O)[C@H](CCC(=O)O)NC(=O)[C@H](CCCCN)NC(=O)[C@H](CO)NC(=O)[C@H](CCCCN)NC(=O)[C@H](CCCNC(=N)N)NC(=O)[C@H](Cc1ccccc1)NC(=O)[C@H](Cc1ccccc1)NC(=O)[C@H](CC(=O)O)NC(=O)CNC(=O)[C@H](CC(C)C)NC(=O)[C@H](CC(C)C)NC(=O)c1ccc2c(c1)C(=O)OC21c2ccc(N(C)C)cc2Oc2cc(N(C)C)ccc21)C(=O)NCC(=O)N[C@@H](CCCCN)C(=O)N[C@@H](CCC(=O)O)C(=O)N[C@@H](Cc1ccccc1)C(=O)N[C@@H](CCCCN)C(=O)N[C@@H](CCCNC(=N)N)C(=O)N[C@H](C(=O)N[C@H](C(=O)N[C@@H](CCC(N)=O)C(=O)N[C@@H](CCCNC(=N)N)C(=O)N[C@H](C(=O)N[C@@H](CCCCN)C(=O)N[C@@H](CC(=O)O)C(=O)N[C@@H](Cc1ccccc1)C(=O)N[C@@H](CC(C)C)C(=O)N[C@@H](CCCNC(=N)N)C(=O)N[C@@H](CC(N)=O)C(=O)N[C@@H](CC(C)C)C(=O)N[C@H](C(=O)N1CCC[C@H]1C(=O)N[C@@H](CCCNC(=N)N)C(=O)N[C@H](C(=O)N[C@@H](CCC(=O)O)C(=O)N[C@@H](CO)C(=O)O)[C@@H](C)O)C(C)C)[C@@H](C)CC)C(C)C)[C@@H](C)CC` [5-TAMRA-LL-37], the “MIC (mode MIC) of 5-TAMRA-labeled AMP derivatives” value under setting [1] worked out at 2 µM.

With `CC[C@H](C)[C@H](NC(=O)[C@H](CCCNC(=N)N)NC(=O)[C@@H]1CCCN1C(=O)[C@@H]1CCCN1C(=O)[C@H](CC(C)C)NC(=O)[C@H](CCCNC(=N)N)NC(=O)[C@@H]1CCCN1C(=O)[C@@H]1CCCN1C(=O)[C@H](Cc1ccccc1)NC(=O)[C@H](Cc1ccccc1)NC(=O)[C@@H]1CCCN1C(=O)[C@@H]1CCCN1C(=O)[C@@H]1CCCN1C(=O)[C@H](CCCNC(=N)N)NC(=O)[C@@H]1CCCN1C(=O)[C@H](CCCNC(=N)N)NC(=O)[C@@H]1CCCN1C(=O)[C@H](CC(C)C)NC(=O)[C@H](Cc1ccc(O)cc1)NC(=O)[C@@H]1CCCN1C(=O)[C@@H]1CCCN1C(=O)[C@H](CCCNC(=N)N)NC(=O)[C@@H]1CCCN1C(=O)[C@H](CCCNC(=N)N)NC(=O)[C@H](CCCNC(=N)N)NC(=O)[C@H](CCCNC(=N)N)NC(=O)c1ccc2c(c1)C(=O)OC21c2ccc(N(C)C)cc2Oc2cc(N(C)C)ccc21)C(=O)N1CCC[C@H]1C(=O)N1CCC[C@H]1C(=O)NCC(=O)N[C@@H](Cc1ccccc1)C(=O)N1CCC[C@H]1C(=O)N1CCC[C@H]1C(=O)N[C@@H](CCCNC(=N)N)C(=O)N[C@@H](Cc1ccccc1)C(=O)N1CCC[C@H]1C(=O)N1CCC[C@H]1C(=O)N[C@@H](CCCNC(=N)N)C(=O)N[C@@H](Cc1ccccc1)C(=O)N1CCC[C@H]1C(N)=O` [5-TAMRA-PR-39] (5TAMRA-RRRPRPPYLPRPRPPPFFPPRLPPRIPPGFPPRFPPRFP-NH2; C-terminus assumed), for the setting “MG1655, 20 h”, the “MIC (mode MIC) of 5-TAMRA-labeled AMP derivatives” value was determined as 2 µM.

As for “RSIRRPRLPRPRVPRPYIPPRIPRPVLPPPRFPIPRFPRGR [CamBac, camel bactenecin]”, the “MIC (mode MIC)” value (MG1655, 20 h) worked out at 0.5 µM.

For the molecule `CN[C@@H]1[C@H](O)[C@H](NC)[C@H]2O[C@@]3(O)C(=O)C[C@@H](C)O[C@H]3O[C@@H]2[C@H]1O` [Spect, spectinomycin], the “MIC (mode MIC), antibiotics” value under setting [1] was 64 µg/mL.

As for `CC[C@H](C)[C@H](NC(=O)[C@H](CCCNC(=N)N)NC(=O)[C@H](CCCNC(=N)N)NC(=O)c1ccc2c(c1)C(=O)OC21c2ccc(N(C)C)cc2Oc2cc(N(C)C)ccc21)C(=O)N[C@@H](CCCNC(=N)N)C(=O)N1CCC[C@H]1C(=O)N[C@@H](CCCNC(=N)N)C(=O)N1CCC[C@H]1C(=O)N1CCC[C@H]1C(=O)N[C@@H](CCCNC(=N)N)C(=O)N[C@@H](CC(C)C)C(=O)N1CCC[C@H]1C(=O)N[C@@H](CCCNC(=N)N)C(=O)N1CCC[C@H]1C(=O)N[C@@H](CCCNC(=N)N)C(=O)N1CCC[C@H]1C(=O)N[C@@H](CCCNC(=N)N)C(=O)N1CCC[C@H]1C(=O)N[C@@H](CC(C)C)C(=O)N1CCC[C@H]1C(=O)N[C@@H](Cc1ccccc1)C(=O)N1CCC[C@H]1C(=O)N[C@@H](CCCNC(=N)N)C(=O)N1CCC[C@H]1C(=O)NCC(=O)N1CCC[C@H]1C(=O)N[C@@H](CCCNC(=N)N)C(=O)N1CCC[C@H]1C(=O)N[C@H](C(=O)N1CCC[C@H]1C(=O)N[C@@H](CCCNC(=N)N)C(=O)N1CCC[C@H]1C(=O)N[C@@H](CC(C)C)C(=O)N1CCC[C@H]1C(=O)N[C@@H](Cc1ccccc1)C(=O)N1CCC[C@H]1C(=O)O)[C@@H](C)CC` [5-TAMRA-Bac7] (5TAMRA-RRIRPRPPRLPRPRPRPLPFPRPGPRPIPRPLPFP-OH; C-terminus assumed), the “MIC (mode MIC) of 5-TAMRA-labeled AMP derivatives” value (MG1655, 20 h) is 0.6 µM.

With “GLLRKGGEKIGEKLKKIGQKIKNFFQKLVPQPEQ [CRAMP]”, the “MIC (mode MIC)” value (E. coli MG1655, M9gluCAAT, 37°C, 20 h, inoculum ~250 cells/mL, max growth rate < 0.2 log(OD)/h, mode across three biological replicates with two technical replicates each) came out at 4 µM.

Take `CC[C@H](C)[C@H](NC(=O)CNC(=O)[C@H](CC(=O)O)NC(=O)[C@H](CCCNC(=N)N)NC(=O)[C@@H](NC(=O)[C@H](CC(N)=O)NC(=O)[C@H](CCC(N)=O)NC(=O)CNC(=O)[C@@H](NC(=O)[C@H](CCCCN)NC(=O)[C@H](CCC(=O)O)NC(=O)[C@@H](NC(=O)[C@H](CCCCN)NC(=O)[C@H](CCCCN)NC(=O)[C@H](Cc1ccccc1)NC(=O)[C@H](CC(C)C)NC(=O)[C@H](CCCCN)NC(=O)[C@H](Cc1c[nH]c2ccccc12)NC(=O)[C@H](CCCCN)NC(=O)c1ccc2c(c1)C(=O)OC21c2ccc(N(C)C)cc2Oc2cc(N(C)C)ccc21)[C@@H](C)CC)C(C)C)[C@@H](C)CC)C(=O)N[C@H](C(=O)N[C@@H](CCCCN)C(=O)N[C@@H](C)C(=O)NCC(=O)N1CCC[C@H]1C(=O)N[C@@H](C)C(=O)N[C@H](C(=O)N[C@@H](C)C(=O)N[C@H](C(=O)N[C@H](C(=O)NCC(=O)N[C@@H](CCC(N)=O)C(=O)N[C@@H](C)C(=O)N[C@H](C(=O)N[C@@H](CCC(N)=O)C(=O)N[C@H](C(=O)N[C@@H](C)C(=O)N[C@@H](CCCCN)C(N)=O)[C@@H](C)CC)[C@@H](C)O)C(C)C)C(C)C)C(C)C)[C@@H](C)CC` [5-TAMRA-CecA] (5TAMRA-KWKLFKKIEKVGQNIRDGIIKAGPAVAVVGQATQIAK-NH2; C-terminus assumed): under “MG1655, 20 h”, the “MIC (mode MIC) of 5-TAMRA-labeled AMP derivatives” value is reported as 2 µM.

`CC[C@@H](C)[C@@H](NC(=O)[C@@H](C)NC(=O)[C@@H](CCCNC(=N)N)NC(=O)[C@@H](Cc1c[nH]c2ccccc12)NC(=O)[C@@H](CCC(N)=O)NC(=O)[C@H](NC(=O)c1ccc2c(c1)C(=O)OC21c2ccc(N(C)C)cc2Oc2cc(N(C)C)ccc21)C(C)C)C(=O)N[C@H](CCCNC(=N)N)C(=O)N[C@@H](C(=O)N[C@H](CCCNC(=N)N)C(=O)N[C@@H](C(=O)N[C@@H](C(=O)N[C@H](CCCNC(=N)N)C(N)=O)[C@H](C)CC)C(C)C)C(C)C` [5-TAMRA-DJK-5] (5TAMRA-[dV][dQ][dW][dR][dA][dI][dR][dV][dR][dV][dI][dR]-NH2; C-terminus assumed): the “MIC (mode MIC) of 5-TAMRA-labeled AMP derivatives” value (MG1655, 20 h) is recorded as 2.5 µM.

Regarding “GIGKFLHSAKKFGKAFVGEIMNS [Mag2, magainin-2]”, where the note is “MG1655, 20 h”, the “MIC (mode MIC)” value came out at 40 µM.

The values above are taken from paper doi:10.1101/2025.04.10.648262, “Time-resolved phenotyping at subcellular resolution reveals shared principles and key trade-offs across antimicrobial peptide activities” (bioRxiv, 2026).
